Data on 17 compounds can be found in US10918642B2, “N-(substituted-phenyl)-sulfonamide derivatives as kinase inhibitors” (Nerviano Medical Sciences S.R.L., priority 2016, dated 2021).

A word on the IC50: it is the concentration that inhibits the measured activity by half.

Assay [1] concerns the target T1, PERK recombinant enzyme (cytoplasmic domain corresponding to residues 540-1115) (Homo sapiens (Human), UniProt Q9NZJ5). Nature of the assay: PERK enzyme assay, Method 2: quantification of phosphorylated product with ATP/P33 gammaATP (Dowex resin). The class given is biochemical. Particulars: Method 2 (P33 gammaATP radiometric); 52 microM ATP, 8 nM PERK, 300 microM eIF2alpha peptide substrate, 60 minutes at room temperature. The protocol:
(§1) The biochemical activity of compounds was determined by incubation with PERK recombinant enzyme (cytoplasmic domain corresponding to residues 540-1115) and elF2alpha peptide substrate (Aminoacid sequence: LLSELSRRRIRSINK—SEQ ID Nr: 1; purchased from American Peptide Company, product #341923). This was followed by:
Method 2: Quantification of the Phosphorylated Product Formed from the Kinase Reaction in Presence of ATP (Aldrich, Cat #A2620-9).
Serially diluted compounds were incubated for 60 minutes at room temperature in the presence of ATP/P^33 gammaATP mix, substrate and enzyme in a volume of 15 microL of kinase buffer in 384-well plates (Thermo Scientific, cat #4312).
The reaction volume contains, in final concentration, 52 microM ATP, 8 nM PERK and 300 microM substrate in 50 mM Hepes pH 7.5, 3 mM MgCl2, 1 mM DTT, 3 microM Na3VO4, 0.2 mg/ml BSA. The final concentration of DMSO was 1%.
At the end of the incubation, an amount of 60 microL of Dowex resin (Sigma, customized resin 1×8 200-400 mesh cat #13858-U) in 150 mM sodium formate buffer pH=3.0 was added to stop the reaction and capture unreacted ATP/P^33 gammaATP, separating it from the phosphorylated substrate in solution. After 60 minutes of rest, a volume of 22 microL of supernatant was transferred into 384-Optiplates (Perkin-Elmer, cat #6007290). After the addition of 50 microL of Microscint 40 (Perkin-Elmer, cat #6013641), the radioactivity was counted in the TopCount (Perkin Elmer).
The data per each molecule are analyzed by an internally customized version of the SW package “Assay Explorer”, or by GraphPad Prizm software alternatively, which provides sigmoidal fittings of the curves for IC50 determination using a 4 parameter logistic equation: y=bottom+(top−bottom)/(1+10^((log IC50−x)*slope))
(§2) where x is the logarithm of the inhibitor concentration, y is the response; y starts at bottom and goes to top with a sigmoid shape.

Assay [2] concerns the target T1, PERK recombinant enzyme (cytoplasmic domain corresponding to residues 540-1115). Nature of the assay: PERK enzyme assay, Method 1: ADP-Glo Kinase Assay (quantification of ADP formed). It counts as biochemical. Conditions: 52 microM ATP, 8 nM PERK, 300 microM eIF2alpha peptide substrate, 60 minutes at room temperature. The protocol:
as §1
Method 1: Quantification of the ADP Tormed from the Kinase Reaction by ADP-Glo™ Kinase Assay (Promega Cat. 9102). Utra Pure ATP was Included into ADP-Glo™ Kinase Assay kit.
Compounds were 3-fold serially diluted in order to obtain from 3.333 to 0.000169 microM final concentration, then incubated for 60 minutes at room temperature in the presence of ATP, substrate and enzyme in a final volume of 15 microL of kinase buffer in 384-well plates (Perkin Elmer cat. #6007290).
The final concentration of the different reagents is 52 microM ATP, 8 nM PERK, 300 microM substrate, 50 mM Hepes pH 7.5, 3 mM MgCl2, 1 mM DTT, 3 microM Na3VO4, 0.2 mg/ml BSA, 1% DMSO.
After 60 minutes, an equal volume (15 microL) of ADP-Glo™ Reagent was added to each well to terminate the kinase reaction and deplete the remaining ATP. After 40 minutes, 30 microL of Kinase Detection Reagent is added, which simultaneously converts ADP to ATP and allows the newly synthesized ATP to be measured using a coupled luciferase/luciferin reaction. After further 40 minutes luminescence was read by ViewLux Instrument (Perkin Elmer). The data are analyzed by GraphPad Prism software which provides sigmoidal fittings of the curves for IC50 determination using a 4 parameter logistic equation: y=bottom+(top−bottom)/(1+10^((log IC50−x)*slope))
as §2
For orientation: ADP-Glo turns the ADP formed in a reaction into a luminescent signal.

T1 sequence (Q9NZJ5 540-1115): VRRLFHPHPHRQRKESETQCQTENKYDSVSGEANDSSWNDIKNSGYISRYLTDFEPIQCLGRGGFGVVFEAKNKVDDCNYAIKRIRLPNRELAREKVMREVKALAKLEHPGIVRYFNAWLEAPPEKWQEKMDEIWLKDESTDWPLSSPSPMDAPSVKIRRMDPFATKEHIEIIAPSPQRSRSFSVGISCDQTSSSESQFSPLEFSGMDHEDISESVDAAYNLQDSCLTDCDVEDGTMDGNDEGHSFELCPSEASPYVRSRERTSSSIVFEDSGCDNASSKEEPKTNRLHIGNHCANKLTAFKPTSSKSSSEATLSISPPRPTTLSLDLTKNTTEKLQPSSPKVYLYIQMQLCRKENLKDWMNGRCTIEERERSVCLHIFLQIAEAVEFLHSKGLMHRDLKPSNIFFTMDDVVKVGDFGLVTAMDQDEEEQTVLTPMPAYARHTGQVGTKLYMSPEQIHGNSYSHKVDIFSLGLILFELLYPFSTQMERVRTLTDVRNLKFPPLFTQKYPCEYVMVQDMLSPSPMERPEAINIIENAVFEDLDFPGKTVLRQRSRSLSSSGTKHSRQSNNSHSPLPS

`CN1CCC(n2cc(-c3cccc(NS(=O)(=O)c4ccc(Br)cc4F)c3F)c3c(N)ncnc32)CC1` [cmpd 72, N-{3-[4-Amino-7-(1-methyl-piperidin-4-yl)-7H-pyrrolo[2,3-d]pyrimidin-5-yl]-2-fluoro-phenyl}-4-bromo-2-fluoro-benzenesulfonamide]: the IC50 in assay [1] was 15.8 to 50.1 nM.

Regarding `COc1cc(F)c(S(=O)(=O)Nc2cccc(-c3nn(C4CCNCC4)c4ncnc(N)c34)c2F)cc1Cl` [cmpd 62, N-[3-(4-Amino-1-piperidin-4-yl-1H-pyrazolo[3,4-d]pyrimidin-3-yl)-2-fluoro-phenyl]-5-chloro-2-fluoro-4-methoxy-benzenesulfonamide], in assay [1], the half-maximal inhibitory concentration (IC50) is 15.8 to 50.1 nM.

For `COc1ccc(S(=O)(=O)Nc2cccc(-c3nn(C4CCNCC4)c4ncnc(N)c34)c2F)cc1Cl` [cmpd 63, N-[3-(4-Amino-1-piperidin-4-yl-1H-pyrazolo[3,4-d]pyrimidin-3-yl)-2-fluoro-phenyl]-3-chloro-4-methoxy-benzenesulfonamide], the IC50 in assay [1] is 15.8 to 50.1 nM.

As to `CN1CCC(n2cc(-c3cccc(NS(=O)(=O)c4ccc(Br)s4)c3F)c3c(N)ncnc32)CC1` [cmpd 77, 5-Bromo-thiophene-2-sulfonic acid {3-[4-amino-7-(1-methyl-piperidin-4-yl)-7H-pyrrolo[2,3-d]pyrimidin-5-yl]-2-fluoro-phenyl}-amide], the concentration for half-maximal inhibition (IC50) in assay [1] was 15.8 to 50.1 nM.

On to `COc1cc(F)c(S(=O)(=O)Nc2cccc(-c3nn(C4CCN(C(=O)OC(C)(C)C)CC4)c4ncnc(N)c34)c2F)cc1Cl` [cmpd 10, 4-{4-Amino-3-[3-(5-chloro-2-fluoro-4-methoxy-benzenesulfonylamino)-2-fluoro-phenyl]-pyrazolo[3,4-d]pyrimidin-1-yl}-piperidine-1-carboxylic acid tert-butyl ester], for which the pIC50 result in assay [1] is “C (pIC50 < 6.8)”.

On to `COc1cc(F)c(S(=O)(=O)Nc2cccc(-c3nn(C4CCN(C)CC4)c4ncnc(N)c34)c2F)cc1Cl` [cmpd 61, N-{3-[4-Amino-1-(1-methyl-piperidin-4-yl)-1H-pyrazolo[3,4-d]pyrimidin-3-yl]-2-fluoro-phenyl}-5-chloro-2-fluoro-4-methoxy-benzenesulfonamide], for which the IC50 in assay [1] is 15.8 to 50.1 nM.

For the compound `Cn1cc(-c2cccc(NS(=O)(=O)C3CCCCC3)c2F)c2c(N)ncnc21` [cmpd 89, Cyclohexanesulfonic acid [3-(4-amino-7-methyl-7H-pyrrolo[2,3-d]pyrimidin-5-yl)-2-fluoro-phenyl]-amide], the pIC50 entry in assay [1] is recorded as “C (pIC50 < 6.8)”.

In the case of `COc1ccc(S(=O)(=O)Nc2cccc(-c3nn(C4CCN(C)CC4)c4ncnc(N)c34)c2F)cc1Cl` [cmpd 66, N-{3-[4-Amino-1-(1-methyl-piperidin-4-yl)-1H-pyrazolo[3,4-d]pyrimidin-3-yl]-2-fluoro-phenyl}-3-chloro-4-methoxy-benzenesulfonamide], the IC50 in assay [1] was 50.1 to 158 nM.

Consider `CN1CCC(n2cc(-c3cccc(NS(=O)(=O)c4ccc(Cl)c(Cl)c4)c3F)c3c(N)ncnc32)CC1` [cmpd 71, N-{3-[4-Amino-7-(1-methyl-piperidin-4-yl)-7H-pyrrolo[2,3-d]pyrimidin-5-yl]-2-fluoro-phenyl}-3,4-dichloro-benzenesulfonamide], for which, in assay [1], the pIC50 result was “AA (7.8 ≤ pIC50)”.

As to `COc1cc(F)c(S(=O)(=O)Nc2cccc(-c3nn(C4CCN(C(C)C)CC4)c4ncnc(N)c34)c2F)cc1Cl` [cmpd 65, N-{3-[4-Amino-1-(1-isopropyl-piperidin-4-yl)-1H-pyrazolo[3,4-d]pyrimidin-3-yl]-2-fluoro-phenyl}-5-chloro-2-fluoro-4-methoxy-benzenesulfonamide], the IC50 in assay [1] is 50.1 to 158 nM.

As for `COc1cc(S(=O)(=O)Nc2cccc(-c3cn(C)c4ncnc(N)c34)c2F)c(F)cc1Cl` [cmpd 79, N-[3-(4-Amino-7-methyl-7H-pyrrolo[2,3-d]pyrimidin-5-yl)-2-fluoro-phenyl]-4-chloro-2-fluoro-5-methoxy-benzenesulfonamide], the IC50 in assay [1] was 15.8 to 50.1 nM.

For `COc1ccc(S(=O)(=O)Nc2cccc(-c3nn(C4CCN(C(=O)OC(C)(C)C)CC4)c4ncnc(N)c34)c2F)cc1Cl` [cmpd 11, 4-{4-Amino-3-[3-(3-chloro-4-methoxy-benzenesulfonylamino)-2-fluoro-phenyl]-pyrazolo[3,4-d]pyrimidin-1-yl}-piperidine-1-carboxylic acid tert-butyl ester], the pIC50 result in assay [1] was “C (pIC50 < 6.8)”.

In the case of `COc1cc(F)c(S(=O)(=O)Nc2cccc(-c3cn(C4CCN(C)CC4)c4ncnc(N)c34)c2F)cc1C` [cmpd 73, N-{3-[4-Amino-7-(1-methyl-piperidin-4-yl)-7H-pyrrolo[2,3-d]pyrimidin-5-yl]-2-fluoro-phenyl}-2-fluoro-4-methoxy-5-methyl-benzenesulfonamide], the pIC50 entry in assay [1] is reported as “AA (7.8 ≤ pIC50)”.

`COc1cc(F)c(S(=O)(=O)Nc2cccc(-c3cn(C)c4ncnc(N)c34)c2C#N)cc1Cl` [cmpd 90, N-[3-(4-Amino-7-methyl-7H-pyrrolo[2,3-d]pyrimidin-5-yl)-2-cyano-phenyl]-5-chloro-2-fluoro-4-methoxy-benzenesulfonamide]: the IC50 in assay [1] was 50.1 to 158 nM.

Consider `CCOc1ccc(S(=O)(=O)Nc2cccc(-c3cn(C)c4ncnc(N)c34)c2F)cc1C` [cmpd 28, N-[3-(4-Amino-7-methyl-7H-pyrrolo[2,3-d]pyrimidin-5-yl)-2-fluoro-phenyl]-4-ethoxy-3-methyl-benzenesulfonamide], for which the IC50 in assay [2] was 15.8 to 50.1 nM.

For `COc1cc(F)c(S(=O)(=O)Nc2cccc(-c3cn(C4CCOCC4)c4ncnc(N)c34)c2F)cc1Cl` [cmpd 76, N-{3-[4-Amino-7-(tetrahydro-pyran-4-yl)-7H-pyrrolo[2,3-d]pyrimidin-5-yl]-2-fluoro-phenyl}-5-chloro-2-fluoro-4-methoxy-benzenesulfonamide], the IC50 in assay [2] was 50.1 to 158 nM.

Turning to `COc1ccc(S(=O)(=O)Nc2cccc(-c3cn(C)c4ncnc(N)c34)c2F)cc1C` [cmpd 12, N-[3-(4-Amino-7-methyl-7H-pyrrolo[2,3-d]pyrimidin-5-yl)-2-fluoro-phenyl]-4-methoxy-3-methyl-benzenesulfonamide], the IC50 in assay [2] was 15.8 to 50.1 nM.
